What was measured:
[1] = test system: rabbit or bovine RPE cells; conditions: added to RPE cell cultures; high oxygen concentrations or intense blue light; Sundelin 2001, Shaban 2002, Nilsson 2003; cited from earlier work
[2] = high dosage, people with risk factors such as smoking; cited from earlier work
ABCR −/− mice = conditions: mice with genetically engineered ABCR −/− gene defect; Radu et al 2003, US 2003/032,078; cited from earlier work
[3] = test system: short chain dehydrogenase enzyme that converts 11-cis-retinol into 11-cis-retinal; conditions: Radu et al 2003; cited from earlier work
RPE65 = conditions: Gollapalli et al 2004; cited from earlier work
[4] = people taking isotretinoin; decreased acuity under moderately dark conditions; cited from earlier work
[5] = Laser-verteporfin photodynamic therapy in a patient with wet macular degeneration who was taking zeaxanthin; type: in vivo, human; conditions: one patient, zeaxanthin 20 milligrams per day for several months before treatment
Excerpt: Additional insights arose from a fortuitous event involving an elderly acquaintance of the Applicant, who was taking zeaxanthin and who decided to have a treatment known as “photodynamic therapy”, which uses a laser to convert a drug called verteporfin into a toxin that will kill and seal newly-growing blood vessels in the retina. The patient's doctor, who is regarded as one of the world's foremost experts in treating macular degeneration, advised the patient to stop taking zeaxanthin before the laser treatment, because (in the physician's opinion) it likely would not help, and it might interfere with the laser treatment. That advice was entirely consistent with the packaging information that accompanies verteporfin, which states that carotenoids should be avoided before treatment, since they may interfere with the treatment.
That discovery and invention arose from an event involving a personal acquaintance of the Inventor. That person was suffering from the “wet” or “exudative” form of macular degeneration, which involves abnormal and aggressive blood vessel growth in and behind the macula. They decided to have a treatment known as “photodynamic therapy”, which uses a laser that is shone directly into the eye of a patient who has been anesthetized. […]

RPE65, sequence (Q16518 whole entry, species assumed): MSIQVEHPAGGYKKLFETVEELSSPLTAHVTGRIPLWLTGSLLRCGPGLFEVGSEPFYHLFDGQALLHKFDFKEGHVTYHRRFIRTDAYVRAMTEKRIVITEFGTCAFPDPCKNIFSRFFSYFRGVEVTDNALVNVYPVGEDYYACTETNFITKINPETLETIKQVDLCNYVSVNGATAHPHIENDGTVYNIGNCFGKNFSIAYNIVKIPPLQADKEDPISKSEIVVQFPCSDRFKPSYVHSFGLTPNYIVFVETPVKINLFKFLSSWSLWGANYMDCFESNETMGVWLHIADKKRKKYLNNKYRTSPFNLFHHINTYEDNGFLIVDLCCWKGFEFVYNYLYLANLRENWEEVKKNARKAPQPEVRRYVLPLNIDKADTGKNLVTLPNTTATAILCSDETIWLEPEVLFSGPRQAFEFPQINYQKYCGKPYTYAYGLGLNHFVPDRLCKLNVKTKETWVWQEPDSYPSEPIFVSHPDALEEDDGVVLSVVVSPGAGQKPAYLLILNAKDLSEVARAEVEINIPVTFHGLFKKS

Molecule | formation of lipofuscin [1] | cell toxicity [1] | further results
O=C1O[C@H]([C@@H](O)CO)C(O)=C1O [Vitamin C] | helped suppress cell toxicity and the formation of lipofuscin |  | 
CC1=C(/C=C/C(C)=C/C=C/C(C)=C/C=C/C=C(C)/C=C/C=C(C)/C=C/C2=C(C)CCCC2(C)C)C(C)(C)CCC1 [beta-carotene] |  |  | rates and risks of lung cancer [2]: actually increases the rates and risks of lung cancer
CC1=C(/C=C/C(C)=C/C=C/C(C)=C\C(=O)O)C(C)(C)CCC1 [isotretinoin, 13-cis-retinoic acid] |  |  | accumulation of lipofuscin in the retinas (ABCR −/− mice): can help slow and reduce the accumulation of lipofuscin; inhibition of short chain dehydrogenase [3]: inhibit at least two different enzymes involved in vision; inhibition of RPE65 (RPE65): inhibit at least two different enzymes involved in vision; vision side effect [4]: night blindness
CC1=C[C@H](O)CC(C)(C)[C@H]1/C=C/C(C)=C/C=C/C(C)=C/C=C/C=C(C)/C=C/C=C(C)/C=C/C1=C(C)C[C@@H](O)CC1(C)C [lutein] | helped suppress cell toxicity and the formation of lipofuscin | helped suppress cell toxicity | 
CC(C)=CCC/C(C)=C/C=C/C(C)=C/C=C/C(C)=C/C=C/C=C(C)/C=C/C=C(C)/C=C/C=C(\C)CCC=C(C)C [lycopene] | helped suppress cell toxicity and the formation of lipofuscin | helped suppress cell toxicity | 
CC1=C(/C=C/C(C)=C/C=C/C(C)=C/C=C/C=C(C)/C=C/C=C(C)/C=C/C2=C(C)C[C@@H](O)CC2(C)C)C(C)(C)C[C@H](O)C1 [zeaxanthin, 3R,3′R-zeaxanthin] | helped suppress cell toxicity and the formation of lipofuscin | helped suppress cell toxicity | results of the laser-verteporfin treatment [5]: much better than anyone had expected
Vitamin E | helped suppress cell toxicity and the formation of lipofuscin | helped suppress cell toxicity | 

Reference: US20060089411A1, “Treatment of Stargardt's disease and other lipofuscin disorders with combined retinaldehyde inhibitor and zeaxanthin” (priority 2004, published 2006)
